Experimental findings from PMC8097335, “A High‐Affinity Calmodulin‐Binding Site in the CyaA Toxin Translocation Domain is Essential for Invasion of Eukaryotic Cells” (Advanced Science, 2021) are described below.

The target of series [1] is T1, calmodulin (CaM) (Homo sapiens, UniProt P0DP23).
T1 construct: made in house; host or cells: E. coli
Briefly: Peptide titrations by CaM followed by tryptophan fluorescence, and ITC (Kd for CaM). Type of series: binding. The conditions noted are these: for Kd: holo-CaM, from fluorescent titrations and ITC, 25 °C, average of at least three independent replicates; for Kd / ∆GKd for CaM: S.D. within ± 10%; for ∆GKd for CaM: ΔGKd = RTln(Kd).
Excerpt: peptides by CaM and is expressed as follows: 𝐾𝐾 𝑑𝑑 = [𝑃𝑃 ]∗[𝐶𝐶𝐶𝐶𝐶𝐶 ][𝑃𝑃:𝐶𝐶𝐶𝐶𝐶𝐶] , given 𝐾𝐾𝑑𝑑[𝐶𝐶𝐶𝐶𝐶𝐶]= [𝑃𝑃 ][𝑃𝑃 :𝐶𝐶𝐶𝐶𝐶𝐶]and the fraction of complex, fP:CaM, i s: 𝑓𝑓𝑃𝑃:𝐶𝐶𝐶𝐶𝐶𝐶 = [𝑃𝑃 :𝐶𝐶𝐶𝐶𝐶𝐶 ][𝑃𝑃:𝐶𝐶𝐶𝐶𝐶𝐶]+[𝑃𝑃]= 11+ [𝑃𝑃 ]= 11+ 𝐾𝐾𝑑𝑑.

Series [2] in a line: Peptide titrations by SUVs followed by tryptophan fluorescence (solution-to-membrane partition). Type of series: physicochemical. The conditions noted are these: for Partition coefficient KX: POPC:POPG 8:2 SUVs, buffer A pH 7.4, 25 °C, tryptophan fluorescence ratio 330/370 nm; for Partition coefficient KX / ∆GKx for POPC POPG 8:2: S.D. within ± 10%; for Kd: converted from KX: [W]/KX = Kd, [W] = 55.5 M, read-out: Kd for POPC:POPG 8:2; for ∆GKx for POPC POPG 8:2: ∆GKx = -RT Ln Kx. How it is done:
Lipid vesicles preparation
Small unilamellar vesicles (SUVs) and large unilamellar vesicles (LUVs) were prepared with POPC and POPG at a molar ratio of 8:2, at a lipid concentration of 10 mM in buffer A, as previously described 1. Briefly, SUVs and LUVs were prepared by reverse phase evaporation and filtered through polycarbonate filters of 1 μm and 0.2 μm of pore size diameter to obtain L UV. SUVs were further sonicated. The hydrodynamic diameters and mean net charge of the vesicles were measured by dynamic light scattering (DLS) and electrophoretic mobility, respectively, using a ZetaSizer NanoZS (Malvern Pananalytical , Orsay, France) 11.
Peptide titrations bySUV s and CaM followed by tryptophan fluorescence
Titrations were carried out with a FP-8200 Jasco spectrofluorimeter, equipped with a Pelt ie r - thermostated ETC-272T at 25°C. A bandwidth of 5 nm was used for both excitation and […]
(Hellma, France) with constant stirring. Fluorescence emission was recorded between 300 and […]
400 nm at a scan rate of 100 nm/min, with an excitation wavelength of 280 nm. Fluorescence emission spectra were corrected for SUV or CaM baselines . Fluorescence intensity ratio at 330 nm over 370 nm was use d to measure the partition coefficient (K X) of peptides between the solution andmembrane s 1, 12 and the affinity (K d) of peptides for CaM 13.
Determination of partition coefficient KX and dissociation constant Kd from […]
The partition coefficient KX is defined as the ratio of protein in the lipid (PL) and in buffer […]
(PW) pha se s 12, 14, expressed by: KKXX = [LL ]? , giving[PPWW ] [PPWW ]= [WW], where [W] the […]
concentration of water (55.5 M) and [L] the lipid concentration.
The fraction of peptide partitioned into the membrane, fPL, is equal to:
ffPPLL = [PPLL ][PPTT ]= [PPLL ][PPLL ]+[PPWW ]= 11+([PPWW ])= 11+( [WW]), where PT is the total concentration of peptides [PP TT ]= [PP LL ]+ [PP WW ]. […]
The equations a re fitted to the experimental data using the KaleidaGraph software, providing the KX and K d value s. The partition coefficient is related to the apparent dissociation constant:
KKXX × KKdd = [WW ] and to the free energy of partition ΔG Kx = -RTln(K X), where ΔG is the free energy in kcal/mol, R the gas constant (R = 1.98 x 10-3 kcal/mol/K) and T the temperature i n Kelvin. The free energy of peptide CaM interaction, ∆G Kd, is given by ΔG Kd = RTln(K d).
Sedimentation velocity-Analytical ultracentrifugation (SV -AUC) […]
ratio 1:1 (at 70 µM each). Samples were incubated 2h at 20°C in the ultracentrifuge and, then span at 42,000 rpm in an An-50 Ti rotor. […]

Series [3] can be described thus: Membrane permeabilization of ANTS/DPX-loaded LUVs. Conditions: ANTS:DPX LUVs POPC:POPG 8:2, 0.45 mM lipid, buffer A pH 7.4, 25 °C, ex 390/em 515 nm; S.D. ± 5%.
Description: To monitor membrane permeabilization induced by peptides, ANTS (fluorophore probe) and
DPX (quencher) were encapsulated into large unilamellar vesicles (LUVs). The LUVs were
prepared at a concentration of 10 mM lipid at a POPC:PO PG molar ratio of 8:2 containing 20
mM ANTS and 60 mM DPX. The multilamellar vesicle suspension was extrudedthrough 0.4-
and 0.2 μm polycarbonate filters to produce LUVs. The unencapsulated ANT S a nd DPX we re
removed by gel filtration with a 5 mL Sephadex G -25 column (GE Healthcare Life Sciences ).
For permeabilization assays, LUVs were incubated in buffer A at 0.45 mM lipid
concentration at 25°C in a 101-QS cuvette (Hellma, France) and under constant stirring.
excitation wavelength was set at 390 nm and the emission of ANTS was continuously
measured at 515 nm. The maximum intensity of permeabilization, corresponding to the
maximum recovery of ANTS fluorescence, was measured after addition of 0.1% of Triton
X100. The concentration of membrane-bound peptide s required to induce the recovery of half
intensity of the ANTS fluorescence (C P1/2) was extracted from the permeabilization intensity
a s a function of peptide concentration 1.
LUVs were incubated in buffer B at a lipid concentration of 0.45 mM.
After a few seconds of permeabilization,
holo-Ca M wa s added t o t he solution at a peptide:Ca M molar ratio of 1:3. EDT A wa s
subsequently added in excess to chelate calcium and convert holo -CaM to apo -C a M .
Series [4] can be described thus: Synchrotron radiation circular dichroism, alpha-helical content (Bestsel). Type of series: physicochemical. Conditions: 25 °C, far-UV SRCD; for alpha-helical content, TFE 20%: 20% TFE; for alpha-helical content, POPC:POPG 8:2: SUVs POPC:POPG 8:2 at 2 mM lipid; for alpha-helical content, Solution: buffer A. The procedure:
Synchrotron Radiation Circular Dichroism
Synchrotron radiation circular dichroism (SRCD) was performed on the DISCO beamline of the synchrotron SOLEIL (Saint -Aubin, France) . Spectra were recorded at 25°C with an integration time of 1.2 s and a bandwidth of 1 nm with a resolution of 1 nm. A far-UV spectrum represents the average of four individual scans. QS cells (Hellma, France) with a pathlength of 20, 50, 100 or 200 μm (depending on final protein concentrations) were used to record spectra in the fa r -UV range (from 190 to 250 nm). CD spectra of peptides and proteins were measured in buffers A and B, 20% of trifluoroethanol (TFE), in the presence of SUVs (POPC :PO PG 8: 2) or Ca M. Secondary structure content was estimated using Bestsel software […]
Table S8: Estimation of the α -helical content of P454-derived peptides. The secondary structure content is estimated using the on-line Bestsel software 17 available at http://bestsel.elte.hu/index.php. […]
peptide in buffer A, in 20% TFE and in the presence of POPC POPG (molar ratio 8:2) at 2 mM lipid concentration. The far -UV CD spectra of several P454-derived peptides are shown […]

As to “Ac-ASAHWGQKALQGAQAVAAAQKLVHAIALMTQ-NH2 [P454 R12K]”, in series [1], binding was put at a Kd of 0.05 µM and the “∆GKd for CaM” value is given as -9.9 kcal/mol. Moreover, in series [2], the “Partition coefficient KX” value was 220 ×10^3; the Kd – broadly, the constant that tells how readily two partners part at equilibrium – came to 260 µM; the “∆GKx for POPC POPG 8:2” value was -7.3 kcal/mol. Besides, the “CP1/2, peptide concentration required to induce recovery of 50% of ANTS fluorescence intensity upon LUVs permeabilization” value in series [3] came to 0.09 µM. Besides, in series [4], the “alpha-helical content, TFE 20%” value is 45 ± 4%; the “alpha-helical content, POPC:POPG 8:2” value is on record as 26 ± 1%; the “alpha-helical content, Solution” value worked out at 13 ±2%.

As to “Ac-ASAHWGQRAAQGAQAVAAAQRLVHAIALMTQ-NH2 [P454 L463A]”, in series [1], the Kd amounted to 0.2 µM and the “∆GKd for CaM” value was -9.1 kcal/mol. For the same substance, in series [2], the “Partition coefficient KX” value is 630 ×10^3, the Kd came to 90 µM and the “∆GKx for POPC POPG 8:2” value is listed as -7.9 kcal/mol. In addition, in series [3], the “CP1/2, peptide concentration required to induce recovery of 50% of ANTS fluorescence intensity upon LUVs permeabilization” value was determined as 0.41 µM. In addition, in series [4], the “alpha-helical content, TFE 20%” value was determined as 48 ± 3%; the “alpha-helical content, POPC:POPG 8:2” value is recorded as 19 ± 2%; the “alpha-helical content, Solution” value was found to be 14 ± 2%.

Take “Ac-ASAHAGQRAAQGAQAVAAAQRLVHAIALMTQ-NH2 [P454 W458A-L463A]”: the “Decrease of affinity for CaM relative to P454” value in series [1] (from Table S3) is 4 fold. Further, in series [1], the Kd was found to be 0.64 µM and the “∆GKd for CaM” value is given as -8.4 kcal/mol. For the same substance, in series [2], the “Partition coefficient KX” value is given as 22 ×10^3, the Kd is 2550 µM and the “∆GKx for POPC POPG 8:2” value is on record as -5.9 kcal/mol. Also, the “CP1/2, peptide concentration required to induce recovery of 50% of ANTS fluorescence intensity upon LUVs permeabilization” value in series [3] turned out to be 6.59 µM. Moreover, in series [4], the “alpha-helical content, TFE 20%” value is listed as 56%; the “alpha-helical content, POPC:POPG 8:2” value was 8 ± 2%; the “alpha-helical content, Solution” value was found to be 7 ± 1%.

Regarding “Ac-ASAHWGQQALQGAQAVAAAQQLVHAIALMTQ-NH2 [P454 R12Q]”, in series [1], binding was put at a Kd of 2.09 µM and the “∆GKd for CaM” value is reported as -7.7 kcal/mol. Moreover, in series [2], the “Partition coefficient KX” value is reported as 70 ×10^3, the Kd was found to be 790 µM and the “∆GKx for POPC POPG 8:2” value is listed as -6.6 kcal/mol. Moreover, the “CP1/2, peptide concentration required to induce recovery of 50% of ANTS fluorescence intensity upon LUVs permeabilization” value in series [3] amounted to 0.23 µM. In series [4], the “alpha-helical content, TFE 20%” value stood at 50 ± 2%; the “alpha-helical content, POPC:POPG 8:2” value is listed as 23 ± 1%; the “alpha-helical content, Solution” value is 8 ± 4%.

As for “Ac-ASAHWGQRALQGAQAVAAAQRLVHAAALMTQ-NH2 [P454 I479A]”, the “∆GKd for CaM” value in series [1] is given as -7.9 kcal/mol. Further, in series [2], the “Partition coefficient KX” value is recorded as 330 ×10^3, the Kd stood at 170 µM and the “∆GKx for POPC POPG 8:2” value is -7.5 kcal/mol. Moreover, in series [3], the “CP1/2, peptide concentration required to induce recovery of 50% of ANTS fluorescence intensity upon LUVs permeabilization” value came to 7.86 µM. Moreover, in series [4], the “alpha-helical content, TFE 20%” value turned out to be 29 ± 1%; the “alpha-helical content, POPC:POPG 8:2” value was determined as 12 ± 3%; the “alpha-helical content, Solution” value came to 8 ± 2%.

For the substance “Ac-ASAHWGQRALQGAQAVAAAQRLVSAIALMTQ-NH2 [P454 H477S]”, in series [1], the Kd is 0.19 µM and the “∆GKd for CaM” value was -9.1 kcal/mol. For the same substance, in series [2], the “Partition coefficient KX” value is 340 ×10^3, the Kd turned out to be 160 µM and the “∆GKx for POPC POPG 8:2” value is on record as -7.5 kcal/mol. Also, in series [3], the “CP1/2, peptide concentration required to induce recovery of 50% of ANTS fluorescence intensity upon LUVs permeabilization” value amounted to 0.25 µM. In series [4], the “alpha-helical content, TFE 20%” value amounted to 40 ± 1%; the “alpha-helical content, POPC:POPG 8:2” value is on record as 20 ± 2%; the “alpha-helical content, Solution” value is reported as 4 ± 2%.

For “Ac-ASAHWGQRALQGAQAVAAAQRLVHAVALMTQ-NH2 [P454 I479V]”, in series [1], the Kd came out at 0.11 µM and the “∆GKd for CaM” value is -9.4 kcal/mol. Further, in series [2], the “Partition coefficient KX” value is 560 ×10^3, the Kd turned out to be 100 µM and the “∆GKx for POPC POPG 8:2” value is listed as -7.8 kcal/mol. In addition, the “CP1/2, peptide concentration required to induce recovery of 50% of ANTS fluorescence intensity upon LUVs permeabilization” value in series [3] came to 0.09 µM. In series [4], the “alpha-helical content, TFE 20%” value is reported as 47 ± 6%; the “alpha-helical content, POPC:POPG 8:2” value was 37 ± 2%; the “alpha-helical content, Solution” value was found to be 2 ± 1%.
